Source: ChEMBL document CHEMBL5316331, “Modulating Cytotoxicity with Lego-like Chemistry: Upgrading Mitochondriotropic Antioxidants with Prototypical Cationic Carrier Bricks” (J Med Chem, 2023)
Active and inactive are the calls of the source. No cut-off for these calls is given here.

Tests used:
SH-SY5Y [1] = test: Effect on cell mitochondrial mass in human SH-SY5Y cells assessed as reduction on mitochondrial mass at 50 uM incubated for 24 hrs by mito-tracker green dye based flow cytometry; assay type: functional; parameters: scale not given: the % may be the effect or the level left
SH-SY5Y [2] = test: Effect on cell morphology in human SH-SY5Y cells assessed as reduction in cell body at 50 uM incubated for 24 hrs by Phase-contrast microscopy; assay type: functional, cell-based
SH-SY5Y [3] = test: Effect on cell morphology in human SH-SY5Y cells assessed as reduction in neurite at 50 uM incubated for 24 hrs by Phase-contrast microscopy; assay type: functional, cell-based
SH-SY5Y [4] = test: Effect on cell death pathway in human SH-SY5Y cells assessed as increase in early apoptotic cells at 50 uM incubated for 24 hrs by Annexin V-FITC/PI staining based microscopy; assay type: functional
SH-SY5Y [5] = test: Effect on cell death pathway in human SH-SY5Y cells assessed as increase in late apoptotic cells at 50 uM incubated for 24 hrs by Annexin V-FITC/PI staining based microscopy; assay type: functional
SH-SY5Y [6] = test: Effect on cell death pathway in human SH-SY5Y cells assessed as increase in necrotic cells at 50 uM incubated for 24 hrs by Annexin V-FITC/PI staining based microscopy; assay type: functional
SH-SY5Y [7] = test: Effect on cell morphology in human SH-SY5Y cells assessed as reduction in cell body at 100 uM incubated for 24 hrs by Phase-contrast microscopy; assay type: functional, cell-based
SH-SY5Y [8] = test: Effect on cell morphology in human SH-SY5Y cells assessed as reduction in neurite at 100 uM incubated for 24 hrs by Phase-contrast microscopy; assay type: functional, cell-based
SH-SY5Y [9] = test: Effect on cell death pathway in human SH-SY5Y cells assessed as increase in early apoptotic cells at 100 uM incubated for 24 hrs by Annexin V-FITC/PI staining based microscopy; assay type: functional
SH-SY5Y [10] = test: Effect on cell death pathway in human SH-SY5Y cells assessed as increase in late apoptotic cells at 100 uM incubated for 24 hrs by Annexin V-FITC/PI staining based microscopy; assay type: functional
SH-SY5Y [11] = test: Effect on cell death pathway in human SH-SY5Y cells assessed as increase in necrotic cells at 100 uM incubated for 24 hrs by Annexin V-FITC/PI staining based microscopy; assay type: functional
[12] = Cytotoxicity against human SH-SY5Y cells assessed as cell viability incubated for 24 hrs; assay type: toxicity, cell-based; conditions: read-out: Activity
[13] = Cytotoxicity against human HepG2 cells assessed as cell viability incubated for 24 hrs; assay type: toxicity, cell-based; conditions: read-out: Activity
SH-SY5Y [14] = test: Cytotoxicity against human SH-SY5Y cells at > 10 uM incubated for 48 hrs; assay type: toxicity, cell-based
SH-SY5Y [15] = test: Cytotoxicity against human SH-SY5Y cells assessed as increase in cell viability at 10 to 100 uM incubated for 24 hrs; assay type: toxicity, cell-based; conditions: dose 10-100 µM
HepG2 = test: Cytotoxicity against human HepG2 cells assessed as increase in cell viability at 10 to 100 uM incubated for 24 hrs; assay type: toxicity, cell-based; conditions: hepg2, 24 h, dose 10-100 µM
[16] = Drug uptake in C57BL/6J mouse liver mitochondria at 5 uM in presence of rotenone by UPLC analysis; assay type: ADME
[17] = Drug uptake in C57BL/6J mouse liver mitochondria at 5 uM in presence of succinate by UPLC analysis; assay type: ADME
[18] = Drug uptake in C57BL/6J mouse liver mitochondria at 5 uM in presence of FCCP by UPLC analysis; assay type: ADME
SH-SY5Y [19] = test: Antioxidant activity against human SH-SY5Y cells assessed as effect on cellular OCR at 10 uM incubated for 24 hrs followed by addition of oligomycin/FCCP/antimycin A /rotenone by Cell Mito stress assay based seahorse XF96 flux analyzer; assay type: functional
SH-SY5Y [20] = test: Antioxidant activity against human SH-SY5Y cells assessed as effect on cellular OCR at 50 uM incubated for 24 hrs followed by addition of oligomycin/FCCP/antimycin A /rotenone by Cell Mito stress assay based seahorse XF96 flux analyzer; assay type: functional
SH-SY5Y [21] = test: Neuroprotective activity against H2O2-induced human SH-SY5Y cells assessed as increase in cell viability at 10 uM preincubated for 30 mins followed by H2O2 addition and measured after 24 hrs by SRB assay; assay type: functional, cell-based; conditions: time 24.5 hrs
SH-SY5Y [22] = test: Neuroprotective activity against H2O2-induced human SH-SY5Y cells assessed as increase in cell viability at 50 uM preincubated for 30 mins followed by H2O2 addition and measured after 24 hrs by SRB assay; assay type: functional, cell-based; conditions: time 24.5 hrs

N#CC(C#N)=NNc1cccc(Cl)c1 [CARBONYL CYANIDE M-CHLOROPHENYLHYDRAZONE]
Activity (SH-SY5Y [1]): 77.4% | Activity (SH-SY5Y [2]): Active | Activity (SH-SY5Y [3]): Active | Activity (SH-SY5Y [4]): Active | Activity (SH-SY5Y [5]): Active | Activity (SH-SY5Y [6]): Active | Activity (SH-SY5Y [7]): Active | Activity (SH-SY5Y [8]): Active | Activity (SH-SY5Y [9]): Active | Activity (SH-SY5Y [10]): Active | Activity (SH-SY5Y [11]): Active

CS(=O)(=O)[O-].Cn1cc[n+](CCCCCCCCCCNC(=O)/C=C/c2ccc(O)c(O)c2)c1
viability at 24 h [12]: ≥ 85% | viability at 24 h [13]: ≥ 85% | Activity (SH-SY5Y [14]): Toxic | Activity (SH-SY5Y [15]): Non-Toxic | Activity (HepG2): Non-Toxic | Drug uptake [16]: Not Active | Drug uptake [17]: ~ 25% | Drug uptake [18]: Active | Activity (SH-SY5Y [19]): inactive | Activity (SH-SY5Y [20]): inactive | Activity (SH-SY5Y [21]): inactive | Activity (SH-SY5Y [22]): inactive
